{"source": "patent US4525458A", "about": "“Method for the production of sphingomyelinase” (priority 1981, dated 1985)"}
{"test_system": "sphingomyelinase", "assay": "Effect of metal ions on enzymatic activity", "type": "biochemical, Streptomyces sp. A 9107", "conditions": "additive 1 mM; no addition = 100", "method": "(§1) After preincubating 0.45 ml of the following reaction mixture at 37° C., 50 μl of an enzyme solution is added to start the reaction. After just 10 minutes, 0.1 ml of 0.1M EDTA is added to stop the reaction.\n(§2) The formed phosphorylcholine is led to a color development system through a H2 O2 by using the following reaction mixture, and absorbance at 500 nm is measured.\n(§3) The indication of enzymatic activity is calculated from the following equation with activity to produce 1 μmole of phosphorylcholine for 1 minute as one unit:\n(§4) wherein ΔA500 nm means a difference in absorbance at 500 nm between at the start of reaction and 10 minutes after the reaction.", "units": {"Relative activity (%)": "%"}}
{"molecule": "[Cl][Mn][Cl]", "note": "[MnCl2]", "Relative activity (%)": 236}
{"molecule": "[Cl-].[Cl-].[Co+2]", "note": "[CoCl2]", "Relative activity (%)": 35}
{"molecule": "[Ba+2].[Cl-].[Cl-]", "note": "[BaCl2]", "Relative activity (%)": 89}
{"molecule": "[Cl][Ni][Cl]", "note": "[NiCl2]", "Relative activity (%)": 12}
{"molecule": "[Cl-].[Cl-].[Mg+2]", "note": "[MgCl2]", "Relative activity (%)": 232}
{"molecule": "[Cl-].[Cl-].[Zn+2]", "note": "[ZnCl2]", "Relative activity (%)": 3}
{"molecule": "[Cl][Cu][Cl]", "note": "[CuCl2]", "Relative activity (%)": 19}
{"molecule": "[Ca+2].[Cl-].[Cl-]", "note": "[CaCl2]", "Relative activity (%)": 48}
{"test_system": "sphingomyelinase", "assay": "Effect of metal ions on enzymatic activity", "type": "biochemical, Streptomyces sp. A 9107", "conditions": "additive 100 mM; no addition = 100", "method": "as §1, §2, §3, §4", "units": {"Relative activity (%)": "%"}}
{"molecule": "[Cl-].[K+]", "note": "[KCl]", "Relative activity (%)": 90}
{"molecule": "[Cl-].[Na+]", "note": "[NaCl]", "Relative activity (%)": 73}
{"molecule": "Cl.N", "note": "[NH4 Cl]", "Relative activity (%)": 79}
{"test_system": "sphingomyelinase", "assay": "Effect of surfactant on enzymatic activity", "type": "biochemical, Streptomyces sp. A 9107", "conditions": "additive 0.1%; no addition = 100", "method": "as §1, §2, §3, §4", "units": {"Relative activity (%)": "%"}}
{"molecule": "Triton X-100", "Relative activity (%)": 358}
{"molecule": "CCCCCCCCCCCCOS(=O)(=O)[O-].[Na+]", "note": "[Sodium laurylsulfate]", "Relative activity (%)": 13}
{"molecule": "C[C@H](CCC(=O)O)[C@H]1CC[C@H]2[C@@H]3CC[C@@H]4C[C@H](O)CC[C@]4(C)[C@H]3C[C@H](O)[C@]12C", "note": "[Sodium deoxycholate]", "Relative activity (%)": 16}
{"molecule": "Sodium laurylbenzenesulfonate", "Relative activity (%)": 8}
{"test_system": "sphingomyelinase", "assay": "Substrate specificity", "type": "biochemical, Streptomyces sp. A 9107", "conditions": "as substrate; sphingomyelin = 100", "method": "as §1, §2, §3, §4\n(10) SUBSTRATE SPECIFICITY", "units": {"Relative activity (%)": "%"}}
{"molecule": "Phosphatidyl ethanolamine", "Relative activity (%)": 0}
{"molecule": "Lysolecithin", "Relative activity (%)": 0}
{"molecule": "Sphingomyelin", "Relative activity (%)": 100}
{"molecule": "Phosphatidyl inositol", "Relative activity (%)": 0}
{"molecule": "Phosphatidyl serine", "Relative activity (%)": 0}
{"molecule": "Lecithin", "Relative activity (%)": 0}
{"test_system": "not listed separately", "assay": "Thermal stability (residual activity)", "type": "physicochemical", "conditions": "23 u/ml in 100 mM Tris-HCl buffer (pH 7.0), heated for 10 minutes", "method": "An enzyme solution is prepared so that its concentration in 100 mM Tris-HCl buffer (pH 7.0) is 23 u/ml, and measured for the residual activity after heated for 10 minutes at every temperatures shown on the abscissa in FIG. 3. The liquor is kept stable until the treatment at 40° C. for 10 minutes.", "units": {"Temperature until which kept stable": "°C"}}
{"molecule": "sphingomyelinase [enzyme]", "Temperature until which kept stable": "≤ 40"}
{"test_system": "not listed separately", "assay": "Isoelectric point by electrophoretic method using ampholite", "type": "physicochemical", "conditions": "not given", "method": "It is determined by the electrophoretic method using ampholite, a carrier. The pH obtained is 8.6.", "units": {"Isoelectric point": "pH"}}
{"molecule": "sphingomyelinase [enzyme]", "Isoelectric point": 8.6}
{"test_system": "not listed separately", "assay": "Measurement of enzymatic activity (specific activity of preparations)", "type": "biochemical", "conditions": "1 unit = 1 μmole phosphorylcholine per minute", "method": "as §1, §2, §3, §4"}
{"molecule": "sphingomyelinase [enzyme]", "Specific activity": "1,050 U/mg"}
